Assay results from patent publication US20230167073A1 (Teijin Pharma Limited, priority 2020, published 2023).

These molecules were tested against T1, Human TRPC6 (Homo sapiens, UniProt Q9Y210) (assay: Evaluation of TRPC6 channel inhibitory activity (1), FLIPR Calcium 5 Assay Kit, OAG stimulation (Compound Nos. 1-1293)). Details: Human TRPC6 stably-expressing cells, OAG 30 μM, FLIPR Calcium 5 Assay Kit; read-out: Inhibitory activity (pIC50 class) (converted).
T1 construct: expressed in transfected cells
T1 sequence (Q9Y210 1-931): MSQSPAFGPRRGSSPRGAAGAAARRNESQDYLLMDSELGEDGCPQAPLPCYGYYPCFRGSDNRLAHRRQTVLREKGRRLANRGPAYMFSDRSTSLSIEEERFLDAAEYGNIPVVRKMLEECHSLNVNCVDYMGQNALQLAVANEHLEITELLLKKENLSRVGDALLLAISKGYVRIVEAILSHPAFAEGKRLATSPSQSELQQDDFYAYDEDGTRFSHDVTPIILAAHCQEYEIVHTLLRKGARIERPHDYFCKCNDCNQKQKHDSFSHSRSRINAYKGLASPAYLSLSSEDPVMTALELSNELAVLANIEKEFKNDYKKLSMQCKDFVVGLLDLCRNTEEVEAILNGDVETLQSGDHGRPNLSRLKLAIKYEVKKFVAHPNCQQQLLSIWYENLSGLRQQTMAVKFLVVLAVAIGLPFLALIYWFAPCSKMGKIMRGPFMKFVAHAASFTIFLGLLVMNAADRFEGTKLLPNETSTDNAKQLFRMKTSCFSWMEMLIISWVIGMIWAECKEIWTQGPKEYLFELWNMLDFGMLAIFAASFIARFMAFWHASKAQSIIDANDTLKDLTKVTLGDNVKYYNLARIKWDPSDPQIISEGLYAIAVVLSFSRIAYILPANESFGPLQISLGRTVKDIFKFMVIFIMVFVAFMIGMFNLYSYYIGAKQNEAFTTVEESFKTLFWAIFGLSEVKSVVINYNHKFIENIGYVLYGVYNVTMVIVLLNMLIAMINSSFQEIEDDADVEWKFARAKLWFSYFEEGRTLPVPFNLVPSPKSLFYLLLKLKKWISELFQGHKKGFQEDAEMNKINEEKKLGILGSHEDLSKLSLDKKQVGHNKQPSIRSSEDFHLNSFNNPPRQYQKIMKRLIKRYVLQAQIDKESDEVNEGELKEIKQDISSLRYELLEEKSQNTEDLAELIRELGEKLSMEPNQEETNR
Type: cell-based
Method in brief: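 Cells stably expressing human TRPC6, plated 24 h before, were loaded 30 min with Calcium 5 dye plus probenecid in HEPES-HBSS. Compound was added 20 min before OAG (30 μM final) and fluorescence tracked on FLIPR. Inhibition normalised to no-compound and no-compound/no-OAG wells; pIC50 from four-parameter fit, reported as +/++/+++ categories.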
In the case of `Cn1nc(C2CC2)cc1Oc1cc(C#N)ccc1-c1ccc(CC(C)(C)N)cn1` [compound 334, 4-[5-(2-amino-2-methylpropyl)pyridin-2-yl]-3-(5-cyclopropyl-2-methylpyrazol-3-yl)oxybenzonitrile], the IC50 is reported as less than 10 nM.
Work on `Cn1nc(C2CC2)cc1Oc1cc(C#N)ccc1-c1ccc(C(O)C(C)(C)N)cn1` (stereo not drawn) [compound 335, 4-[5-(2-amino-1-hydroxy-2-methylpropyl)pyridin-2-yl]-3-(5-cyclopropyl-2-methylpyrazol-3-yl)oxybenzonitrile] yielded an IC50 of less than 10 nM.
Work on `CCCCc1cc(Oc2cc(C#N)ccc2-c2ccc(C(O)C(C)(C)N)cn2)n(C)n1` (stereo not drawn) [compound 336, 4-[5-(2-amino-1-hydroxy-2-methylpropyl)pyridin-2-yl]-3-(5-butyl-2-methylpyrazol-3-yl)oxybenzonitrile] yielded an IC50 of less than 10 nM.
In the case of `CCCCc1cc(Oc2cc(C#N)ccc2-c2ncc(C(O)CN)cn2)n(C)n1` (stereo not drawn) [compound 337, 4-[5-(2-amino-1-hydroxyethyl)pyrimidin-2-yl]-3-(5-butyl-2-methylpyrazol-3-yl)oxybenzonitrile], the IC50 is reported as less than 10 nM.
`Cn1nc(-c2ccccn2)cc1Oc1cc(C#N)ccc1-c1ccc(CC(C)(C)N)cn1` [compound 338, 4-[5-(2-amino-2-methylpropyl)pyridin-2-yl]-3-(2-methyl-5-pyridin-2-ylpyrazol-3-yl)oxybenzonitrile] showed an IC50 of less than 10 nM.
Work on `Cc1nc(Oc2cc(C#N)ccc2-n2cc([C@@H](O)CN)cn2)cc(-c2ccccc2F)n1` [compound 339, 4-[4-[(1R)-2-amino-1-hydroxyethyl]pyrazol-1-yl]-3-[6-(2-fluorophenyl)-2-methylpyrimidin-4-yl]oxybenzonitrile] yielded an IC50 of 10 to 1000 nM.
Work on `Cc1nc(Oc2cc(C#N)ccc2-n2cc([C@@H](O)CN)cn2)cc(-c2ccccc2Cl)n1` [compound 340, 4-[4-[(1R)-2-amino-1-hydroxyethyl]pyrazol-1-yl]-3-[6-(2-chlorophenyl)-2-methylpyrimidin-4-yl]oxybenzonitrile] yielded an IC50 of 10 to 1000 nM.
Work on `Cc1nc(Oc2cc(C#N)ccc2-n2cc([C@@H](O)CN)cn2)cc(-c2ccccc2C#N)n1` [compound 341, 4-[4-[(1R)-2-amino-1-hydroxyethyl]pyrazol-1-yl]-3-[6-(2-cyanophenyl)-2-methylpyrimidin-4-yl]oxybenzonitrile] yielded an IC50 of less than 10 nM.
For `Cc1nc(Oc2cc(C#N)ccc2-n2cc([C@H](O)CN)cn2)cc(-c2ccccc2F)n1` [compound 342, 4-[4-[(1S)-2-amino-1-hydroxyethyl]pyrazol-1-yl]-3-[6-(2-fluorophenyl)-2-methylpyrimidin-4-yl]oxybenzonitrile], the IC50 was 10 to 1000 nM.
`Cc1nc(Oc2cc(C#N)ccc2-n2cc([C@H](O)CN)cn2)cc(-c2ccccc2Cl)n1` [compound 343, 4-[4-[(1S)-2-amino-1-hydroxyethyl]pyrazol-1-yl]-3-[6-(2-chlorophenyl)-2-methylpyrimidin-4-yl]oxybenzonitrile] showed an IC50 of 10 to 1000 nM.
Work on `Cc1nc(Oc2cc(C#N)ccc2-n2cc([C@H](O)CN)cn2)cc(-c2ccccc2C#N)n1` [compound 344, 4-[4-[(1S)-2-amino-1-hydroxyethyl]pyrazol-1-yl]-3-[6-(2-cyanophenyl)-2-methylpyrimidin-4-yl]oxybenzonitrile] yielded an IC50 of less than 10 nM.
Molecule `CCc1cc(Oc2cc(C#N)ccc2-c2ccc(OCCN)cn2)n(C)n1` [compound 345, 4-[5-(2-aminoethoxy)pyridin-2-yl]-3-(5-ethyl-2-methylpyrazol-3-yl)oxybenzonitrile] has an IC50 of 10 to 1000 nM.
`Cn1nc(-c2ccccc2)cc1Oc1cc(C#N)ccc1-c1cnc(CCN)nc1` [compound 346, 4-[2-(2-aminoethyl)pyrimidin-5-yl]-3 (2-methyl-5-phenylpyrazol-3-yl)oxybenzonitrile] gave an IC50 of less than 10 nM.
With `Cn1nc(C2CC2)cc1Oc1cc(C#N)ccc1-c1cnc(CCN)nc1` [compound 347, 4-[2-(2-aminoethyl)pyrimidin-5-yl]-3-(5-cyclopropyl-2-methylpyrazol-3 yl)oxybenzonitrile] the IC50 was greater than 1000 nM.
`Cn1nc(C2CC2)cc1Oc1cc(C#N)ccc1-c1ccc(OCCN)cn1` [compound 348, 4-[5-(2-aminoethoxy)pyridin-2-yl]-3-(5-cyclopropyl-2-methylpyrazol-3-yl)oxybenzonitrile] was tested, and the IC50 was less than 10 nM.
For `Cc1cc(Oc2cc(C#N)ccc2-c2ccc(OCCN)cn2)n(C)n1` [compound 349, 4-[5-(2-aminoethoxy)pyridin-2-yl]-3-(2,5-dimethylpyrazol-3-yl)oxybenzonitrile], the IC50 was greater than 1000 nM.
In the case of `Cc1cc(Oc2cc(C#N)ccc2-c2ccc(OCCN)cn2)cc(N2CCOCC2)n1` [compound 350, 4-[5-(2-aminoethoxy)pyridin-2-yl]-3-(2-methyl-6-morpholin-4-ylpyridin-4-yl)oxybenzonitrile], the IC50 is reported as 10 to 1000 nM.
`Cc1nc(Oc2cc(C#N)ccc2-n2cc([C@@H](O)CN)cn2)cc(-c2ccccc2C(F)(F)F)n1` [compound 351, 4-[4-[(1R)-2-amino-1-hydroxyethyl]pyrazol-1-yl]-3-[2-methyl-6-[2-(trifluoromethyl)phenyl]pyrimidin-4-yl]oxybenzonitrile] was tested, and the IC50 was 10 to 1000 nM.
`Cc1nc(Oc2cc(C#N)ccc2-n2cc([C@@H](O)CN)cn2)cc(-c2ccccn2)n1` [compound 352, 4-[4-[(1R)-2-amino-1-hydroxyethyl]pyrazol-1-yl]-3-(2-methyl-6-pyridin-2-ylpyrimidin-4-yl)oxybenzonitrile] showed an IC50 of 10 to 1000 nM.
`Cc1nc(Oc2cc(C#N)ccc2-n2cc([C@@H](O)CN)cn2)cc(-c2cccc(C(F)(F)F)c2)n1` [compound 353, 4-[4-[(1R)-2-amino-1-hydroxyethyl]pyrazol-1-yl]-3-[2-methyl-6-[3-(trifluoromethyl)phenyl]pyrimidin-4-yl]oxybenzonitrile] showed an IC50 of 10 to 1000 nM.
`Cc1nc(Oc2cc(C#N)ccc2-n2cc([C@H](O)CN)cn2)cc(-c2ccccc2C)n1` [compound 354, 4-[4-[(1S)-2-amino-1-hydroxyethyl]pyrazol-1-yl]-3-[2-methyl-6-(2-methylphenyl)pyrimidin-4-yl]oxybenzonitrile] showed an IC50 of 10 to 1000 nM.
In the case of `Cc1nc(Oc2cc(C#N)ccc2-n2cc([C@H](O)CN)cn2)cc(-c2ccccc2C(F)(F)F)n1` [compound 355, 4-[4-[(1S)-2-amino-1-hydroxyethyl]pyrazol-1-yl]-3-[2-methyl-6-[2-(trifluoromethyl)phenyl]pyrimidin-4-yl]oxybenzonitrile], the IC50 is reported as greater than 1000 nM.
In the case of `Cc1nc(Oc2cc(C#N)ccc2-n2cc([C@H](O)CN)cn2)cc(-c2ccccn2)n1` [compound 356, 4-[4-[(1S)-2-amino-1-hydroxyethyl]pyrazol-1-yl]-3-(2-methyl-6-pyridin-2-ylpyrimidin-4-yl)oxybenzonitrile], the IC50 is reported as 10 to 1000 nM.
Work on `Cc1nc(Oc2cc(C#N)ccc2-n2cc([C@H](O)CN)cn2)cc(-c2cccc(C(F)(F)F)c2)n1` [compound 357, 4-[4-[(1S)-2-amino-1-hydroxyethyl]pyrazol-1-yl]-3-[2-methyl-6-[3-(trifluoromethyl)phenyl]pyrimidin-4-yl]oxybenzonitrile] yielded an IC50 of 10 to 1000 nM.
With `Cc1nc(Oc2cc(C#N)ccc2-n2cc([C@@H](O)CN)cn2)cc(-c2ccccc2C)n1` [compound 358, 4-[4-[(1R)-2-amino-1-hydroxyethyl]pyrazol-1-yl]-3-[2-methyl-6-(2-methylphenyl)pyrimidin-4-yl]oxybenzonitrile] the IC50 was 10 to 1000 nM.
`Cn1nc(C2CC2)c(F)c1Oc1cc(C#N)ccc1-c1ncc(CCN)cn1` [compound 359, 4-[5-(2-aminoethyl)pyrimidin-2-yl]-3-(5-cyclopropyl-4-fluoro-2-methylpyrazol-3-yl)oxybenzonitrile] was tested, and the IC50 was 10 to 1000 nM.
`Cn1nc(-c2ccccc2)c(F)c1Oc1cc(C#N)ccc1-c1ncc(CCN)cn1` [compound 360, 4-[5-(2-aminoethyl)pyrimidin-2-yl]-3-(4-fluoro-2-methyl-5-phenylpyrazol-3-yl)oxybenzonitrile] was tested, and the IC50 was less than 10 nM.
For `CCCc1cc(Oc2cc(C#N)ccc2-c2ccc(CN)cn2)n(C)n1` [compound 361, 4-[5-(aminomethyl)pyridin-2-yl]-3-(2-methyl-5-propylpyrazol-3-yl)oxybenzonitrile], the IC50 was less than 10 nM.
Work on `CC(C)c1cc(Oc2cc(C#N)ccc2-c2ccc(CN)cn2)n(C)n1` [compound 362, 4-[5-(aminomethyl)pyridin-2-yl]-3-(2-methyl-5-propan-2-ylpyrazol-3-yl)oxybenzonitrile] yielded an IC50 of less than 10 nM.
For `CCCc1cc(Oc2cc(C#N)ccc2-c2ncc(CN)cn2)n(C)n1` [compound 363, 4-[5-(aminomethyl)pyrimidin-2-yl]-3-(2-methyl-5-propylpyrazol-3-yl)oxybenzonitrile], the IC50 was less than 10 nM.
